Measured values as given in ChEMBL document CHEMBL1147899, “Raman, FT-IR, NMR spectroscopic data and antimicrobial activity of bis[micro2-(benzimidazol-2-yl)-2-ethanethiolato-N,S,S-chloro-palladium(II)] dimer, [(micro2-CH2CH2NHNCC6H4)PdCl]2.C2H5OH complex” (2007).

How the values were obtained:
Assay type in all cases: functional
Escherichia coli [1] = assay: Antibacterial activity against Escherichia coli ATCC 11230 at 10 ug after 24 hrs by disk diffusion method; conditions: ATCC 11230, 24 h, read-out: IZ
Staphylococcus aureus [2] = assay: Antibacterial activity against Staphylococcus aureus ATCC 6538 at 10 ug after 24 hrs by disk diffusion method; conditions: ATCC 6538, 24 h, read-out: IZ
Klebsiella pneumoniae [3] = assay: Antibacterial activity against Klebsiella pneumoniae UC57 at 10 ug after 24 hrs by disk diffusion method; conditions: read-out: IZ
Pseudomonas aeruginosa [4] = assay: Antibacterial activity against Pseudomonas aeruginosa ATCC 27853 at 10 ug after 24 hrs by disk diffusion method; conditions: ATCC 27853, 24 h, read-out: IZ
Proteus vulgaris [5] = assay: Antibacterial activity against Proteus vulgaris ATCC 8427 at 10 ug after 24 hrs by disk diffusion method; conditions: ATCC 8427, 24 h, read-out: IZ
Bacillus cereus [6] = assay: Antibacterial activity against Bacillus cereus ATCC 7064 at 10 ug after 24 hrs by disk diffusion method; conditions: ATCC 7064, 24 h, read-out: IZ
[7] = tested on: Mycolicibacterium smegmatis; assay: Antibacterial activity against Mycobacterium smegmatis CCM 2067 at 10 ug after 24 hrs by disk diffusion method; conditions: CCM 2067, 24 h, read-out: IZ
Listeria monocytogenes [8] = assay: Antibacterial activity against Listeria monocytogenes ATCC 15313 at 10 ug after 24 hrs by disk diffusion method; conditions: ATCC 15313, 24 h, read-out: IZ
Micrococcus luteus [9] = assay: Antibacterial activity against Micrococcus luteus La 2971 at 10 ug by disk diffusion method; conditions: read-out: IZ
Escherichia coli [10] = assay: Antibacterial activity against Escherichia coli ATCC 11230 at 30 ug after 24 hrs by disk diffusion method; conditions: ATCC 11230, 24 h, read-out: IZ
Staphylococcus aureus [11] = assay: Antibacterial activity against Staphylococcus aureus ATCC 6538 at 30 ug after 24 hrs by disk diffusion method; conditions: ATCC 6538, 24 h, read-out: IZ
Klebsiella pneumoniae [12] = assay: Antibacterial activity against Klebsiella pneumoniae UC57 at 30 ug after 24 hrs by disk diffusion method; conditions: read-out: IZ
Proteus vulgaris [13] = assay: Antibacterial activity against Proteus vulgaris ATCC 8427 at 30 ug after 24 hrs by disk diffusion method; conditions: ATCC 8427, 24 h, read-out: IZ
Bacillus cereus [14] = assay: Antibacterial activity against Bacillus cereus ATCC 7064 at 30 ug after 24 hrs by disk diffusion method; conditions: ATCC 7064, 24 h, read-out: IZ
[15] = tested on: Mycolicibacterium smegmatis; assay: Antibacterial activity against Mycobacterium smegmatis CCM 2067 at 30 ug after 24 hrs by disk diffusion method; conditions: CCM 2067, 24 h, read-out: IZ
Listeria monocytogenes [16] = assay: Antibacterial activity against Listeria monocytogenes ATCC 15313 at 30 ug after 24 hrs by disk diffusion method; conditions: ATCC 15313, 24 h, read-out: IZ
Micrococcus luteus [17] = assay: Antibacterial activity against Micrococcus luteus La 2971 at 30 ug by disk diffusion method; conditions: read-out: IZ
Candida albicans [18] = assay: Antifungal activity against Candida albicans ATCC 10231 at 20 ug after 72 hrs by disk diffusion method; conditions: ATCC 10231, 72 h, read-out: IZ
Kluyveromyces marxianus [19] = assay: Antifungal activity against Kluyveromyces fragilis NRRL 2415 at 20 ug after 72 hrs by disk diffusion method; conditions: NRRL 2415, 72 h, read-out: IZ
Rhodotorula mucilaginosa [20] = assay: Antifungal activity against Rhodotorula rubra DSM 70403 at 20 ug after 72 hrs by disk diffusion method; conditions: DSM 70403, 72 h, read-out: IZ
[21] = tested on: Hanseniaspora guilliermondii; assay: Antifungal activity against Hanseniaspora guilliermondii DSM 3432 at 20 ug after 72 hrs by disk diffusion method; conditions: DSM 3432, 72 h, read-out: IZ
Debaryomyces hansenii [22] = assay: Antifungal activity against Debaryomyces hansenii DSM 70238 at 20 ug after 72 hrs by disk diffusion method; conditions: DSM 70238, 72 h, read-out: IZ
Rhodotorula mucilaginosa [23] = assay: Antifungal activity against Rhodotorula rubra DSM 70403 after 72 hrs by disk diffusion method
Micrococcus luteus [24] = assay: Antibacterial activity against Micrococcus luteus La 2971 after 24 hrs by disk diffusion method
Candida albicans [25] = assay: Antifungal activity against Candida albicans ATCC 10231 after 72 hrs by disk diffusion method
Kluyveromyces marxianus [26] = assay: Antifungal activity against Kluyveromyces fragilis NRRL 2415 after 72 hrs by disk diffusion method
[27] = tested on: Hanseniaspora guilliermondii; assay: Antifungal activity against Hanseniaspora guilliermondii DSM 3432 after 72 hrs by disk diffusion method
Debaryomyces hansenii [28] = assay: Antifungal activity against Debaryomyces hansenii DSM 70238 after 72 hrs by disk diffusion method
Escherichia coli [29] = assay: Antibacterial activity against Escherichia coli ATCC 11230 after 24 hrs by dilution method; conditions: ATCC 11230, 24 h
Staphylococcus aureus [30] = assay: Antibacterial activity against Staphylococcus aureus ATCC 6538 after 24 hrs by dilution method; conditions: ATCC 6538, 24 h
Klebsiella pneumoniae [31] = assay: Antibacterial activity against Klebsiella pneumoniae UC57 after 24 hrs by dilution method
Escherichia coli [32] = assay: Antibacterial activity against Escherichia coli ATCC 11230 after 24 hrs by disk diffusion method
Staphylococcus aureus [33] = assay: Antibacterial activity against Staphylococcus aureus ATCC 6538 after 24 hrs by disk diffusion method
Klebsiella pneumoniae [34] = assay: Antibacterial activity against Klebsiella pneumoniae UC57 after 24 hrs by disk diffusion method
Pseudomonas aeruginosa [35] = assay: Antibacterial activity against Pseudomonas aeruginosa ATCC 27853 after 24 hrs by disk diffusion method
Proteus vulgaris [36] = assay: Antibacterial activity against Proteus vulgaris ATCC 8427 after 24 hrs by disk diffusion method
Bacillus cereus [37] = assay: Antibacterial activity against Bacillus cereus ATCC 7064 after 24 hrs by disk diffusion method
[38] = tested on: Mycolicibacterium smegmatis; assay: Antibacterial activity against Mycobacterium smegmatis CCM 2067 after 24 hrs by disk diffusion method
Listeria monocytogenes [39] = assay: Antibacterial activity against Listeria monocytogenes ATCC 15313 after 24 hrs by disk diffusion method
Pseudomonas aeruginosa [40] = assay: Antibacterial activity against Pseudomonas aeruginosa ATCC 27853 after 24 hrs by dilution method; conditions: ATCC 27853, 24 h
Proteus vulgaris [41] = assay: Antibacterial activity against Proteus vulgaris ATCC 8427 by after 24 hrs dilution method; conditions: ATCC 8427, 24 h
Bacillus cereus [42] = assay: Antibacterial activity against Bacillus cereus ATCC 7064 after 24 hrs by dilution method; conditions: ATCC 7064, 24 h
[43] = tested on: Mycolicibacterium smegmatis; assay: Antibacterial activity against Mycobacterium smegmatis CCM 2067 after 24 hrs by dilution method; conditions: CCM 2067, 24 h
Listeria monocytogenes [44] = assay: Antibacterial activity against Listeria monocytogenes ATCC 15313 after 24 hrs by dilution method; conditions: ATCC 15313, 24 h
Micrococcus luteus [45] = assay: Antibacterial activity against Micrococcus luteus La 2971 after 24 hrs by dilution method
Candida albicans [46] = assay: Antifungal activity against Candida albicans ATCC 10231 after 48 hrs by dilution method; conditions: ATCC 10231, 48 h
Kluyveromyces marxianus [47] = assay: Antifungal activity against Kluyveromyces fragilis NRRL 2415 after 48 hrs by dilution method; conditions: NRRL 2415, 48 h
Rhodotorula mucilaginosa [48] = assay: Antifungal activity against Rhodotorula rubra DSM 70403 after 48 hrs by dilution method; conditions: DSM 70403, 48 h
[49] = tested on: Hanseniaspora guilliermondii; assay: Antifungal activity against Hanseniaspora guilliermondii DSM 3432 after 48 hrs by dilution method; conditions: DSM 3432, 48 h
Debaryomyces hansenii [50] = assay: Antifungal activity against Debaryomyces hansenii DSM 70238 after 48 hrs by dilution method; conditions: DSM 70238, 48 h

Q: What does the source list for `CC1(C)S[C@@H]2[C@H](NC(=O)[C@H](N)c3ccccc3)C(=O)N2[C@H]1C(=O)O` [AMPICILLIN]?
A: zone of inhibition at 10 µg/disc (Escherichia coli [1]): 12 mm; zone of inhibition at 10 µg/disc (Staphylococcus aureus [2]): 16 mm; zone of inhibition at 10 µg/disc (Klebsiella pneumoniae [3]): 14 mm; zone of inhibition at 10 µg/disc (Pseudomonas aeruginosa [4]): 10 mm; zone of inhibition at 10 µg/disc (Proteus vulgaris [5]): 16 mm; zone of inhibition at 10 µg/disc (Bacillus cereus [6]): 12 mm; zone of inhibition at 10 µg/disc [7]: 21 mm; zone of inhibition at 10 µg/disc (Listeria monocytogenes [8]): 12 mm; zone of inhibition at 10 µg/disc (Micrococcus luteus [9]): 32 mm

Q: `CC1(C)S[C@@H]2[C@H](NC(=O)Cc3ccccc3)C(=O)N2[C@H]1C(=O)O` [PENICILLIN G] was tested. Which zone of inhibition at 10 µg/disc (Escherichia coli [1]) did it give?
A: 18 mm

Q: What about the zone of inhibition at 10 µg/disc (Staphylococcus aureus [2]) of the same molecule?
A: 13 mm

Q: What about the zone of inhibition at 10 µg/disc (Klebsiella pneumoniae [3]) of the same molecule?
A: 18 mm

Q: What about the zone of inhibition at 10 µg/disc (Pseudomonas aeruginosa [4]) of the same molecule?
A: 8 mm

Q: And the zone of inhibition at 10 µg/disc (Proteus vulgaris [5])?
A: 10 mm

Q: And the zone of inhibition at 10 µg/disc (Bacillus cereus [6])?
A: 14 mm

Q: And the zone of inhibition at 10 µg/disc [7]?
A: 15 mm

Q: And the zone of inhibition at 10 µg/disc (Listeria monocytogenes [8])?
A: 10 mm

Q: What about the zone of inhibition at 10 µg/disc (Micrococcus luteus [9]) of the same molecule?
A: 36 mm

Q: Which zone of inhibition at 30 µg/disc (Escherichia coli [10]) does the source give for `CO/N=C(\C(=O)N[C@@H]1C(=O)N2C(C(=O)O)=C(COC(C)=O)CS[C@H]12)c1csc(N)n1` [CEFOTAXIME] here?
A: 10 mm

Q: And the zone of inhibition at 30 µg/disc (Staphylococcus aureus [11])?
A: 12 mm

Q: What about the zone of inhibition at 30 µg/disc (Klebsiella pneumoniae [12]) of the same molecule?
A: 13 mm

Q: And the zone of inhibition at 30 µg/disc (Proteus vulgaris [13])?
A: 18 mm

Q: What about the zone of inhibition at 30 µg/disc (Bacillus cereus [14]) of the same molecule?
A: 14 mm

Q: And the zone of inhibition at 30 µg/disc [15]?
A: 11 mm

Q: And the zone of inhibition at 30 µg/disc (Listeria monocytogenes [16])?
A: 16 mm

Q: And the zone of inhibition at 30 µg/disc (Micrococcus luteus [17])?
A: 32 mm

Q: What does the source list for `CC(=O)N1CCN(c2ccc(OCC3COC(Cn4ccnc4)(c4ccc(Cl)cc4Cl)O3)cc2)CC1` (centres undefined) [KETOCONAZOLE]?
A: zone of inhibition at 20 µg/disc (Candida albicans [18]): 21 mm; zone of inhibition at 20 µg/disc (Kluyveromyces marxianus [19]): 16 mm; zone of inhibition at 20 µg/disc (Rhodotorula mucilaginosa [20]): 22 mm; zone of inhibition at 20 µg/disc [21]: 24 mm; zone of inhibition at 20 µg/disc (Debaryomyces hansenii [22]): 14 mm

Q: What does the source list for `Cl.c1ccc2[nH]c(CCSSCCc3nc4ccccc4[nH]3)nc2c1`?
A: inhibition zone (IZ) (Rhodotorula mucilaginosa [23]): 15 mm; inhibition zone (IZ) (Micrococcus luteus [24]): 14 mm; inhibition zone (IZ) (Candida albicans [25]): 17 mm; inhibition zone (IZ) (Kluyveromyces marxianus [26]): 18 mm; inhibition zone (IZ) [27]: 16 mm; inhibition zone (IZ) (Debaryomyces hansenii [28]): 14 mm; MIC (Escherichia coli [29]): 12.5 µg/mL; MIC (Staphylococcus aureus [30]): 12.5 µg/mL; MIC (Klebsiella pneumoniae [31]): 25 µg/mL; inhibition zone (IZ) (Escherichia coli [32]): 14 mm; inhibition zone (IZ) (Staphylococcus aureus [33]): 16 mm; inhibition zone (IZ) (Klebsiella pneumoniae [34]): 12 mm; inhibition zone (IZ) (Pseudomonas aeruginosa [35]): 12 mm; inhibition zone (IZ) (Proteus vulgaris [36]): 16 mm; inhibition zone (IZ) (Bacillus cereus [37]): 12 mm; inhibition zone (IZ) [38]: 16 mm; inhibition zone (IZ) (Listeria monocytogenes [39]): 12 mm; MIC (Pseudomonas aeruginosa [40]): 25 µg/mL; MIC (Proteus vulgaris [41]): 6.25 µg/mL; MIC (Bacillus cereus [42]): 50 µg/mL; MIC [43]: 6.25 µg/mL; MIC (Listeria monocytogenes [44]): 12.5 µg/mL; MIC (Micrococcus luteus [45]): 12.5 µg/mL; MIC (Candida albicans [46]): 6.25 µg/mL; MIC (Kluyveromyces marxianus [47]): 3.12 µg/mL; MIC (Rhodotorula mucilaginosa [48]): 12.5 µg/mL; MIC [49]: 6.25 µg/mL; MIC (Debaryomyces hansenii [50]): 12.5 µg/mL
